PubChem BioAssay (NCI)
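Following 48 hours of exposure in 96-well plates, responses at five concentrations were used to interpolate endpoints linearly. TGI is the concentration that stops growth completely.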

How the values were obtained:
Test in all cases: growth of human tumour cells (NCI), 48 h
M14 melanoma = tested on: M14 melanoma
MALME-3M melanoma = tested on: MALME-3M melanoma
EKVX NSCLC = tested on: EKVX NSCLC
NCI-H522 lung = tested on: NCI-H522 lung
SNB-75 CNS = tested on: SNB-75 CNS
ACHN renal = tested on: ACHN renal
MDA-MB-435 = tested on: MDA-MB-435
HT29 colon = tested on: HT29 colon
DU-145 prostate = tested on: DU-145 prostate
UACC-62 melanoma = tested on: UACC-62 melanoma
SF-268 CNS = tested on: SF-268 CNS
T-47D breast = tested on: T-47D breast
NCI-H226 lung = tested on: NCI-H226 lung
CAKI-1 renal = tested on: CAKI-1 renal
HS 578T breast = tested on: HS 578T breast
CCRF-CEM leukemia = tested on: CCRF-CEM leukemia
SNB-19 CNS = tested on: SNB-19 CNS
OVCAR-5 ovarian = tested on: OVCAR-5 ovarian
KM12 colon = tested on: KM12 colon
SF-539 CNS = tested on: SF-539 CNS
UACC-257 melanoma = tested on: UACC-257 melanoma
OVCAR-8 ovarian = tested on: OVCAR-8 ovarian
MDA-MB-231 breast = tested on: MDA-MB-231 breast
U251 CNS = tested on: U251 CNS
HCT-116 colon = tested on: HCT-116 colon
UO-31 renal = tested on: UO-31 renal
IGROV1 ovarian = tested on: IGROV1 ovarian
OVCAR-3 ovarian = tested on: OVCAR-3 ovarian
HOP-62 NSCLC = tested on: HOP-62 NSCLC
HCC-2998 colon = tested on: HCC-2998 colon
MCF7 breast = tested on: MCF7 breast
RPMI-8226 leukemia = tested on: RPMI-8226 leukemia
NCI/ADR-RES ovarian = tested on: NCI/ADR-RES ovarian
TK-10 renal = tested on: TK-10 renal
SR leukemia = tested on: SR leukemia
A498 renal = tested on: A498 renal
HL-60(TB) leukemia = tested on: HL-60(TB) leukemia
786-0 renal = tested on: 786-0 renal
A549 NSCLC = tested on: A549 NSCLC
PC-3 prostate = tested on: PC-3 prostate
SK-MEL-2 melanoma = tested on: SK-MEL-2 melanoma
K-562 leukemia = tested on: K-562 leukemia
SK-MEL-28 melanoma = tested on: SK-MEL-28 melanoma
MOLT-4 leukemia = tested on: MOLT-4 leukemia
SK-OV-3 ovarian = tested on: SK-OV-3 ovarian
SW-620 colon = tested on: SW-620 colon
LOX IMVI melanoma = tested on: LOX IMVI melanoma
MDA-N = tested on: MDA-N
NCI-H23 lung = tested on: NCI-H23 lung
SN12C renal = tested on: SN12C renal
OVCAR-4 ovarian = tested on: OVCAR-4 ovarian
NCI-H460 lung = tested on: NCI-H460 lung
SF-295 CNS = tested on: SF-295 CNS
RXF 393 renal = tested on: RXF 393 renal
SK-MEL-5 melanoma = tested on: SK-MEL-5 melanoma
COLO 205 colon = tested on: COLO 205 colon
HOP-92 NSCLC = tested on: HOP-92 NSCLC
HCT-15 colon = tested on: HCT-15 colon

Measured: TGI

CC(=O)OC1CC2CC(=O)CC1N2C (stereo not drawn)
> 100 µM: M14 melanoma | MALME-3M melanoma | EKVX NSCLC | NCI-H522 lung | SNB-75 CNS | ACHN renal | MDA-MB-435 | HT29 colon | DU-145 prostate | UACC-62 melanoma | SF-268 CNS | T-47D breast | NCI-H226 lung | CAKI-1 renal | HS 578T breast | CCRF-CEM leukemia | SNB-19 CNS | OVCAR-5 ovarian | KM12 colon | SF-539 CNS | UACC-257 melanoma | OVCAR-8 ovarian | MDA-MB-231 breast | U251 CNS | HCT-116 colon | UO-31 renal | IGROV1 ovarian | OVCAR-3 ovarian | HOP-62 NSCLC | HCC-2998 colon | MCF7 breast | RPMI-8226 leukemia | NCI/ADR-RES ovarian | TK-10 renal | SR leukemia | A498 renal | HL-60(TB) leukemia | 786-0 renal | A549 NSCLC | PC-3 prostate | SK-MEL-2 melanoma | K-562 leukemia | SK-MEL-28 melanoma | MOLT-4 leukemia | SK-OV-3 ovarian | SW-620 colon | LOX IMVI melanoma | MDA-N | NCI-H23 lung | SN12C renal | OVCAR-4 ovarian | NCI-H460 lung | SF-295 CNS | RXF 393 renal | SK-MEL-5 melanoma | COLO 205 colon | HOP-92 NSCLC | HCT-15 colon
